For series [1], the target named is T1, amyloid β protein (Homo sapiens, UniProt P05067).
T1 construct: the amyloid β protein (purchased from Peptide Laboratory) was dissolved in a potassium phosphate buffer (pH7.4); purchased Peptide Laboratory
The series can be described thus: β structure recognition of amyloid β protein (thioflavin T fluorescence). Format: binding. The settings on record: for β Structure recognition (%) / β structure recognition (%) at 1 µM: test compound 1 μM, thioflavin T 3 μM, average of duplicated experiments; for β structure recognition (%) at 1 µM: read-out: β Structure recognition (%); for β structure recognition (in words): comment on Table I. As for the experimental part: (1) Method of Quantifying the Amyloid β Protein Having β Sheet Structure—method of Measuring of Recognition of β Structure in a Test Compound
Then, each 100 microliters of thioflavin T (which emits fluorescence depending on an extent of β structure of the amyloid β protein) dissolved in a glycine-NaOH buffer (pH 8.5) was added (final concentration 3 μM), and the fluorescence was immediately measured with a fluorescent microplate reader (manufactured by Molecular Device, Model fmax) at an excitation wavelength of 442 nm and a measurement wavelength of 485 nm. When the fluorescence of thioflavin alone was regarded as A, the fluorescence under the coexistence of the amyloid β protein and thioflavin T was regarded as B, and the fluorescence under the coexistence of the amyloid β protein, thioflavin T and a test compound was regarded as C, the recognition of β structure for the test compound was calculated by the following formula (unless otherwise indicated, the concentration of a test compound was 1 μM):
β structure recognition for test compound (%)={(B−C)/(B−A)}×100

Series [2] in a line: Distribution coefficient between water/1-octanol. Format: physicochemical. The following applies: for Distribution coefficient: 1-octanol / phosphate buffer (pH 7.3) or ultra-pure water; for Distribution coefficient (in words): comment on Table I. The protocol: As an oily phase, 1-octanol was used and, as an aqueous phase, a phosphate buffer (pH 7.3) or ultra-pure water was used. A suitable amount of a test compound was dissolved in an oily phase or an aqueous phase, and both phases were placed in the same test tube, and shaken vigorously at room temperature for 30 minutes. After allowing to stand at room temperature over 1 hour, centrifugation at 2000 rpm for 10 minutes was carried out, followed by further standing at room temperature for 1 hour. The aqueous phase and the oily phase were sampled, respectively, and transferred to a 96-well microplate. By using a microplate reader (manufactured by Molecular Device, Model Spectramax 250), the absorbance was measured at a maximum absorbing wavelength for each test compound, and the concentration of the test compound was calculated from a calibration curve previously obtained. A distribution coefficient was calculated by the following formula. Distribution coefficient for test compound =(concentration of test compound in oily phase)/(concentration of test compound in aqueous phase) As the distribution coefficient becomes larger, it can be said that the blood-brain barrier permeability for the test compound is higher.

Structures can show the parent of a compound that is named as a salt. A value given as a limit tells only on which side of the number the result lay.

T1 sequence (P05067 672-711 limits assumed): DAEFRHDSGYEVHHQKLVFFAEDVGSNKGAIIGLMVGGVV

With `CCN(CC)c1ccc(/N=N/c2ccc(Br)cn2)c(O)c1` [BF-020], in series [1], the “β Structure recognition (%)” value turned out to be 84.4%. Regarding `CCN(CC)c1ccc(/N=C/c2ccc(N(CC)CC)cc2O)cc1` [BF-021], in series [2], the Distribution coefficient is on record as 30 and the “Distribution coefficient (in words)” value is given as “high distribution coefficients”. In series [1], the “β Structure recognition (%)” value came to 70.8%.

`CN(C)c1ccc(/N=C2/C=CC(=O)c3ccccc32)cc1` [BF-022]: the β structure recognition (%) at 1 µM in series [1] was 27.8%. Take `CN(C)c1ccc(/C=N/c2ccc(O)cc2)cc1` [BF-033]: the β structure recognition (%) at 1 µM in series [1] is 7.6%.

Regarding `CCOc1ccc(/N=C/c2ccc(N(C)C)cc2)cc1.Cl` [BF-034], the “β Structure recognition (%)” value in series [1] is given as 19.7%.

For the molecule `CN(C)c1ccc(/C=N/c2ccc(F)cc2)cc1.Cl` [BF-035], the “β Structure recognition (%)” value in series [1] was determined as 5.6%. In the case of `CCN(CC)c1ccc(/N=N/c2ccc(N(C)C)cc2)c(NC(N)=O)c1` [BF-055], the β structure recognition (%) at 1 µM in series [1] was determined as 85%. As for `CCN(CC)c1ccc(/C=C/c2cccc(/C=C/c3ccc(N(CC)CC)cc3)[n+]2C)cc1` [BF-064], in series [2], the Distribution coefficient stood at 87 and the “Distribution coefficient (in words)” value is given as “high distribution coefficients”. For the same molecule, in series [1], the “β structure recognition (in words)” value is “highly recognize β structure” and the β structure recognition (%) at 1 µM was 78.5%. `O.O.O.O.O.O=C([O-])c1cc(N=Nc2ccc(-c3ccc(N=Nc4ccc(O)c(C(=O)[O-])c4)cc3)cc2)ccc1O.[Na+].[Na+]` [Chrysamine G 2Na.5H2O, reference compound] showed a Distribution coefficient in series [2] of 2.7. In series [1], the “β Structure recognition (%)” value came to 84.5%. Consider `CN(C)c1ccc(SSc2ccc(N(C)C)cc2)cc1` [Compound N-200], for which, in series [1], the β structure recognition (%) at 1 µM came out at 21.6%. The molecule `O=C(O)c1cc(/C=C/c2ccc(/C=C/c3ccc(O)c(C(=O)O)c3)cc2)ccc1O` [Compound X34, 1,4-bis[2-(3-carboxy-4-hydroxyphenyl)eten-yl]-benzene, reference compound] returned a Distribution coefficient in series [2] of 3.4. Moreover, the β structure recognition (%) at 1 µM in series [1] worked out at 73.9%. Regarding `O=C([O-])c1cc(/C=C/c2ccc(/C=C/c3ccc(O)c(C(=O)[O-])c3)cc2)ccc1O.[Na+].[Na+]` [Compound X34.2Na, reference compound], the Distribution coefficient in series [2] amounted to 2.7. The “β Structure recognition (%)” value in series [1] stood at 74.0%.

With `CN(C)c1ccc(/N=N/c2ccc(S(=O)(=O)O)cc2)cc1` [SA-125, Methyl Orange], the Distribution coefficient in series [2] worked out at 1. Further, the β structure recognition (%) at 1 µM in series [1] stood at 62.2%.

In the case of `CCN(CC)c1ccc(/N=N/c2ccccc2)cc1` [SA-134, 4-(diethylamino) azobenzene], the β structure recognition (%) at 1 µM in series [1] came to 65.4%. Take `Cc1cc(N(C)C)ccc1/N=N/c1ccccc1` [SA-135, 4-dimethylamino-2-methyl-azobenzene]: in series [1], the β structure recognition (%) at 1 µM turned out to be 42.8%. Still for that read-out and setting: to `Nc1ccc(/N=N/c2ccccc2)cc1` [SA-138, 4-phenyl azoaniline HCl salt] belongs 35.9%. Take `Nc1ccc(/N=N/c2ccccc2)cc1` [SA-148, 4-phenyl azoaniline]: the “β Structure recognition (%)” value in series [1] came to 28.0%. For the molecule `CCN(CC)c1ccc(/N=N/c2ccc(S(=O)(=O)O)cc2)cc1` [SA-163, Ethyl Orange Na salt], the β structure recognition (%) at 1 µM in series [1] stood at 30.7%. For the molecule `CC[n+]1c(/C=C/c2ccc(N(C)C)cc2)ccc2ccccc21` [SA-169, Quinaldine Red], in series [2], the Distribution coefficient was 18. In series [1], the “β structure recognition (in words)” value is recorded as “highly recognize β structure” and the β structure recognition (%) at 1 µM was determined as 91.9%. For `Nc1ccc(/N=N/c2ccc([N+](=O)[O-])cc2)cc1` [SA-180, Disprese Orange 3], the β structure recognition (%) at 1 µM in series [1] is 58%. Same read-out and setting: to `CN(C)c1ccc(/N=N/c2ccc(S(=O)(=O)Cl)cc2)cc1` [SA-188, 4-(dimethylamino) azobenzene-4′-sulfonylchloride] belongs 62.7%; to `Nc1ccc(/N=N/c2cccc3ccccc23)c(N)c1` [SA-201, Fat Brown RR], 73%; to `CC[n+]1ccccc1/C=C/c1ccc(N(C)C)cc1` [SA-212, 2-(4-(dimethylamino)stylyl)-1-ethyl pyridinium iodide], 46%. As for `CN(C)c1ccc(C=Cc2cccc[n+]2C)cc1.[I-]` [SA-213, 2-(4-(dimethylamino)stylyl)-1-methyl pyridinium iodide], the “β Structure recognition (%)” value in series [1] was 50.7%. Consider `CN(C)c1ccc(N=Nc2ccccn2)cc1` [SA-215, 4-(2-pyridylazo)-N,N-dimethylaniline], for which, in series [2], the Distribution coefficient was over 100 and the “Distribution coefficient (in words)” value is reported as “highest distribution coefficient”. In addition, in series [1], the “β structure recognition (in words)” value is listed as “relatively high recognition of β structure” and the β structure recognition (%) at 1 µM came out at 69.1%. The molecule `CN(C)c1ccc(/C=C/c2ccc3ccccc3[n+]2C)cc1` [SA-245, 2-(4-(dimethylamino)stylyl)-1-methyl quinolinium iodide] showed a Distribution coefficient in series [2] of 10. In addition, in series [1], the “β structure recognition (in words)” value is reported as “highly recognize β structure” and the β structure recognition (%) at 1 µM was determined as 86.9%.

`CN(C)c1ccc(C=Cc2cccc[n+]2C)cc1.[I-]` [SA-247, 2-(4-(dimethylamino)stylyl)-1-metyl pyridinium iodide]: in series [1], the “β Structure recognition (%)” value was 19.5%.

Take `Nc1ccc(SSc2ccc(N)cc2)cc1` [SA-260, 4-aminophenyldisulfide]: in series [1], the “β structure recognition (in words)” value is on record as “highly recognize β structure” and the β structure recognition (%) at 1 µM worked out at 83.1%. With `CN(C)c1ccc(/C=C/c2ccccn2)cc1` [SA-271], the β structure recognition (%) at 1 µM in series [1] was 53%. Turning to `Nc1ccc(/C=C/c2ccc(N)cc2)cc1` [SA-324, 4,4′-diaminostylbene (2HCl salt)], the β structure recognition (%) at 1 µM in series [1] was determined as 36%. On the same count and under the same terms, next, `Nc1c(SSc2ccc3ccccc3c2N)ccc2ccccc12` [SA-366, 2,2′-dithiobis(1-naphthylamine)]: 43.3%; `CN(C)c1ccc(N=Nc2ccc(N)cc2Cl)cc1` [SA-376, Disperse Black 7]: 35.7%; `CCOc1ccc(/N=C/c2ccc(N(C)C)cc2)cc1` [SA-399, N-(4-(dimethylamino)benzylidene)-p-phenetidine]: 23.1%.

Consider `CN(C)c1ccc(/C=N/c2ccc(F)cc2)cc1` [SA-407, N-(4-(dimethylamino)benzylidene)-4-fluoroaniline], for which the β structure recognition (%) at 1 µM in series [1] stood at 6.8%. In the case of `CCc1ccc(/N=C/c2ccc(N(C)C)cc2)cc1` [SA-408, N-(4-(dimethylamino)benzylidene)-4-ethylaniline], the β structure recognition (%) at 1 µM in series [1] worked out at 7.9%. The same measure, in the same setting: to `COc1cc(N=Nc2ccc(N)cc2)c(C)cc1N` [SA-419, 4,4′diamino-5-methoxy-2-methyl azobenze] belongs 38.4%.

For the molecule `CCN(CC)c1ccc(N=Nc2ccc(N(C)C)cc2)c(NC(N)=O)c1` [SA-420, 4-(diethylamino)-4′-(dimethylamino)-2-(ureido)azobenzene], in series [1], the “β structure recognition (in words)” value was “highly recognize β structure” and the β structure recognition (%) at 1 µM was 71.6%. On to `CCN(CC)c1ccc(/C=C/c2cc[n+](C)cc2)cc1` [SA-445], for which the β structure recognition (%) at 1 µM in series [1] is 71.2%.

With `CN(C)c1ccc(/N=N/c2ccc(NC(=O)CI)cc2)cc1` [SA-446, N-(4-dimethylamino) azobenzene-4′-iodoacetamide], in series [1], the β structure recognition (%) at 1 µM was 52.4%.

Regarding `CN(C)c1ccc(/N=N/c2ccc(N)cc2)cc1` [SA-512, N,N-dimethyl-4,4′-azodianiline], the β structure recognition (%) at 1 µM in series [1] stood at 68.2%. As to `CN(C)c1ccc(/N=N/c2ccc(C(=O)O)cc2)cc1` [SA-606], the β structure recognition (%) at 1 µM in series [1] was found to be 53.5%. On to `CN(C)c1ccc(/C=N/c2cc3c(ccc4ccccc43)cn2)cc1` [SA-672, benzo(F) isoquinoline-2-yl-(4-dimethylaminobenzylidene)-amine], for which, in series [1], the β structure recognition (%) at 1 µM came to 39.3%. Same read-out and setting: to `CCN(CC)c1ccc(/C=N/c2ccccc2)cc1` [SA-757, N-(4-(diethylamino)benzylidene) aniline] belongs 33.9%; to `CN(C)c1ccc(/N=C/c2ccccc2)cc1` [SA-758, N-benzylidene-N′,N′-dimethylbenzene-1,4-diamine], 46.5%; to `CN(C)c1ccc(/C=C/c2ccc3ccccc3n2)cc1` [SA-770, 2-(4-(dimethylamino)stylyl) quinoline], 25.4%.

Source of the values: patent US20030138374A1, “Image diagnosis probe based on substituted azobenzene or analogue thereof for disease attributable to amyloid accumulation and composition for image diagnosis containing the same” (priority 2000, published 2003).
